{"source": "patent US10538674B2", "about": "“Method of forming anti-rust or anti-bacterial film containing tannic acid derivatives” (NATIONAL INSTITUTE FOR MATERIALS SCIENCE, priority 2014, dated 2020)", "key": {"colon bacilli (E. Coli)": {"system": "colon bacilli (E. Coli)", "assay": "Pasteurization/Sterilization Testing 1: E. Coli scattered on film on glass substrate", "assay_type": "cell-based", "details": "drop-cast film on glass substrate, room temperature, 24 hours after scattering, 0 hour count 1.2×10^5", "method": "Using TA (Comparative Example 1), TA(C6)10 (Example 6), TA(C10)10 (Example 2), and TA(C16)10 (Example 8), respectively, a film was formed by drop-casting on a 5 cm×5 cm glass substrate. Preparing a THF solution, drop-casting of the THF solution in an amount of 1.1 mg/cm^2 was followed by annealing under the conditions of 1 hour and 80° C. to prepare a drop-cast film. The TA (Comparative Example 1), TA(C6)10 (Example 6), TA(C10)10 (Example 2), and TA(C16)10 (Example 8) film was formed on the glass substrate by the aforesaid method, and colon bacilli (E. Coli) were scattered on it to observe changes in the surface of the film at room temperature. FIG. 18 is a graph representative of the results of proliferation of bacteria on the film. The cell count of colon bacilli scattered at the start (0 hour) was 1.2×10^5 CFU/mL. After the lapse of 24 hours, that cell count increased to 1.4×10^7 CFU/mL for the TA coated (control) film. […] A problem with tannic acid—known so far to be capable of pasteurization in the form of an aqueous solution—was that a tannic acid film is wrinkled up, running short of durability. […] It is here to be noted that the unit CFU/mL is an abbreviation of a colony forming unit indicative of a quantitative unit used in the inspection of bacteria in foods or a unit of the quantity of bacteria. […]"}, "[1]": {"system": "golden staphs (S. Aureus)", "assay": "Pasteurization/Sterilization Testing 1: S. Aureus scattered on film on glass substrate", "assay_type": "cell-based", "details": "drop-cast film on glass substrate, 24 hours after scattering; 0 hour count 1.1 × 10^5"}, "[2]": {"system": "methicillin-resistant Staphylococcus Aureus (MRSA)", "assay": "Pasteurization/Sterilization Testing 1: MRSA scattered on film on glass substrate", "assay_type": "cell-based", "details": "drop-cast film on glass substrate, 24 hours after scattering; 0 hour count 1.2 × 10^5"}, "[3]": {"assay": "Solubility upon addition to water and chloroform", "assay_type": "physicochemical", "description": "Tannic acid powders (WAKO, 203-06331) were kept at the ready. FIG. 2(a) is a photograph taken of the external view of tannic acid powders, FIG. 2(b) is a photograph of the external view of tannic acid powders upon added to water, and FIG. 2(c) is a photograph of the external view of tannic acid powders upon added to chloroform. As shown in FIG. 2(a), the tannic acid powders were ocher powders. […] This tannic acid material was used for Comparative Example 1. FIG. 4(a) is a photograph taken of the external view of the derivative, and FIGS. 4(b) and 4(c) are photographs taken of the external views of the derivative upon added to water and chloroform, respectively."}}, "data": [{"smiles": "O=C(OC[C@H]1O[C@@H](OC(=O)c2cc(O)c(O)c(OC(=O)c3cc(O)c(O)c(O)c3)c2)[C@H](OC(=O)c2cc(O)c(O)c(OC(=O)c3cc(O)c(O)c(O)c3)c2)[C@@H](OC(=O)c2cc(O)c(O)c(OC(=O)c3cc(O)c(O)c(O)c3)c2)[C@@H]1OC(=O)c1cc(O)c(O)c(OC(=O)c2cc(O)c(O)c(O)c2)c1)c1cc(O)c(O)c(OC(=O)c2cc(O)c(O)c(O)c2)c1", "note": "[TA, tannic acid]", "values": [{"measurement": "Cell count of E. Coli, 24 hours", "setting": "colon bacilli (E. Coli); listed as Control", "result": "1.4 × 10^7 CFU/mL"}, {"measurement": "Cell count of E. Coli, 24 hours", "setting": "colon bacilli (E. Coli); listed as TA coated (control)", "result": "1.4×10^7 CFU/mL"}, {"measurement": "Cell count of S. Aureus, 24 hours", "setting": "[1]", "result": "1.1 × 10^5 CFU/mL"}, {"measurement": "Cell count of MRSA, 24 hours", "setting": "[2]", "result": "1.7 × 10^5 CFU/mL"}, {"measurement": "Solubility in chloroform", "setting": "[3]; upon added to chloroform (CHCl3)", "result": "not in chloroform"}, {"measurement": "Solubility in water", "setting": "[3]; upon added to water", "result": "dissolved in water"}]}]}
